{"source": "the kinase profiling compilation of Christmann-Franck et al. (2016)", "test_in_all_cases": "radiometric filter-binding kinase assay, Kinase HotSpot", "details_in_all_cases": "compound 0.5 µM; ATP 10 µM", "key": {"MAPK10 (human)": {"target": "MAPK10 (human) (UniProt P53779)"}, "ADRBK1 (human)": {"target": "ADRBK1 (human) (UniProt P25098)"}, "EPHB3 (human)": {"target": "EPHB3 (human) (UniProt P54753)", "sequence (P54753 whole entry, looked up)": "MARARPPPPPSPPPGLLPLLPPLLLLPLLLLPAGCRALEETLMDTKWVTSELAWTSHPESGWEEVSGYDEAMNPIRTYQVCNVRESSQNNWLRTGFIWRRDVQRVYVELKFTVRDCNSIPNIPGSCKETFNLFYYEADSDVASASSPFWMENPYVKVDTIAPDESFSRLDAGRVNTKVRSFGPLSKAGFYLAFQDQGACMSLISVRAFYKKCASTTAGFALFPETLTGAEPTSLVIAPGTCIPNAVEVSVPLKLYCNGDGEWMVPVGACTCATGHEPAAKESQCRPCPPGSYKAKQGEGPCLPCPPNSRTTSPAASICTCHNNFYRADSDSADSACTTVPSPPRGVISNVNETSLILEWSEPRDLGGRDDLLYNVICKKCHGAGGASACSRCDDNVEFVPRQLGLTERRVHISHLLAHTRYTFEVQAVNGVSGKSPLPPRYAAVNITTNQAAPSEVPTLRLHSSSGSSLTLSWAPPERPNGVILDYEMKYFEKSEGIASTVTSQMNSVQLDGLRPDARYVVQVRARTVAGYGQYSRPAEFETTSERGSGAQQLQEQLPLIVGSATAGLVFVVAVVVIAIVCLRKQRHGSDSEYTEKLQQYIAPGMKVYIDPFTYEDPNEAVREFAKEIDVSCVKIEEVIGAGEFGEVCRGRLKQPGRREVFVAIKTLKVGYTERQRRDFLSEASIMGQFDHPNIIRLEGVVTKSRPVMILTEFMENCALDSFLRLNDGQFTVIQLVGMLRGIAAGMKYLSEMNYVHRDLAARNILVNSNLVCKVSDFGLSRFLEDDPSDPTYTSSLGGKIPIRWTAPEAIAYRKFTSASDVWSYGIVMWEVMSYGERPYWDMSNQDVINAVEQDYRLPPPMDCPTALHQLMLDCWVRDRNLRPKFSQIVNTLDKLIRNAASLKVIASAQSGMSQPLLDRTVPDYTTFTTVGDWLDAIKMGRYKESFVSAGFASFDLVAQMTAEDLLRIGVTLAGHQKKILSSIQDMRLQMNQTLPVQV"}, "CLK1 (human)": {"target": "CLK1 (human) (UniProt P49759)"}, "MAPKAPK2 (human)": {"target": "MAPKAPK2 (human) (UniProt P49137)"}, "RPS6KA1 KD1 KD2 (human)": {"target": "RPS6KA1 KD1 KD2 (human) (UniProt Q15418)"}, "PRKD3 (human)": {"target": "PRKD3 (human) (UniProt O94806)"}, "CLK4 (human)": {"target": "CLK4 (human) (UniProt Q9HAZ1)", "sequence (Q9HAZ1 whole entry, looked up)": "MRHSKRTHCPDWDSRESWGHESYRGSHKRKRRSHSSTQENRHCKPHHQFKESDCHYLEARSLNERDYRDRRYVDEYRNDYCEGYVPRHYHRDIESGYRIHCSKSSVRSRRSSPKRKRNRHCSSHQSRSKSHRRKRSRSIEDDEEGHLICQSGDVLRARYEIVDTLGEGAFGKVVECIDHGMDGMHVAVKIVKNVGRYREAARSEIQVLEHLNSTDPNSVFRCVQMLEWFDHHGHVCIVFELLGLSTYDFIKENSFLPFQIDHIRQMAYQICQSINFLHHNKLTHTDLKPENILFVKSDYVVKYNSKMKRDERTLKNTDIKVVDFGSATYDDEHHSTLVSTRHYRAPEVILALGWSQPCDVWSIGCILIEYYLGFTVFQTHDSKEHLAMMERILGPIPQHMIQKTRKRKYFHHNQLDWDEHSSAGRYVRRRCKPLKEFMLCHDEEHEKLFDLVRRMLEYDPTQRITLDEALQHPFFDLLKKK"}, "IRAK4 (human)": {"target": "IRAK4 (human) (UniProt Q9NWZ3)"}, "PRKCG (human)": {"target": "PRKCG (human) (UniProt P05129)"}, "PRKCE (human)": {"target": "PRKCE (human) (UniProt Q02156)"}, "CHUK (human)": {"target": "CHUK (human) (UniProt O15111)"}, "NTRK1 (human)": {"target": "NTRK1 (human) (UniProt P04629)"}, "TAOK1 (human)": {"target": "TAOK1 (human) (UniProt Q7L7X3)"}, "CAMK2A (human)": {"target": "CAMK2A (human) (UniProt Q9UQM7)", "sequence (Q9UQM7 whole entry, looked up)": "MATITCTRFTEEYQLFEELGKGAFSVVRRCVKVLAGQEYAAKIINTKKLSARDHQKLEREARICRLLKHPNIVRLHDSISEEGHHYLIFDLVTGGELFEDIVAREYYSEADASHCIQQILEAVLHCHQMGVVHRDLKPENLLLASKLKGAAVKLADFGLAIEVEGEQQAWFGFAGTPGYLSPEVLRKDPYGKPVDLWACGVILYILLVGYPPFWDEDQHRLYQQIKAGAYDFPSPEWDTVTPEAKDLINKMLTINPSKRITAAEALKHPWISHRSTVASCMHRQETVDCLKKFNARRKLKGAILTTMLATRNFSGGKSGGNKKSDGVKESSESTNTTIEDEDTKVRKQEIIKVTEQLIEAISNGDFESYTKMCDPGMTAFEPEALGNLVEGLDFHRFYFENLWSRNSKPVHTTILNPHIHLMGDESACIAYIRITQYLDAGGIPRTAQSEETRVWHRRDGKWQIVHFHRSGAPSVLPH"}, "MAP4K5 (human)": {"target": "MAP4K5 (human) (UniProt Q9Y4K4)"}, "[1]": {"tested_on": "PRKCQ (human), Q04759 [P330L]"}, "MAP3K7 TAB1 (human)": {"target": "MAP3K7 TAB1 (human) (UniProt O43318+Q15750)", "sequence (O43318 whole entry, looked up)": "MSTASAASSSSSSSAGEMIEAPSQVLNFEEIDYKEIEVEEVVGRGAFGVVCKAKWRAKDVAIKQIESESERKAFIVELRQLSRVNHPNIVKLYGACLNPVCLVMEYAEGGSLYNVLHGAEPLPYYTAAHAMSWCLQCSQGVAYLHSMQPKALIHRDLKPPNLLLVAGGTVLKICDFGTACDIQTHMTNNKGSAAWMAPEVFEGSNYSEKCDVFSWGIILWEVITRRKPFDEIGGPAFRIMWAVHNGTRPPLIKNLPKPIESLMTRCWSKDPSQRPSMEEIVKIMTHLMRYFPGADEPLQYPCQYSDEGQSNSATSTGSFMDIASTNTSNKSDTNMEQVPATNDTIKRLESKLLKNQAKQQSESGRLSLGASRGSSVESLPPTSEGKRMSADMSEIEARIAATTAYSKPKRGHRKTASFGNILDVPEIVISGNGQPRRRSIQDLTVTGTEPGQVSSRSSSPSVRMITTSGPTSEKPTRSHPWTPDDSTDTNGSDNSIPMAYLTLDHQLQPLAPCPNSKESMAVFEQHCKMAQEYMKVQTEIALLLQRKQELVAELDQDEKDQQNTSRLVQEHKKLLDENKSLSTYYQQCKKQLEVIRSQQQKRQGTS", "sequence (Q15750 whole entry, looked up)": "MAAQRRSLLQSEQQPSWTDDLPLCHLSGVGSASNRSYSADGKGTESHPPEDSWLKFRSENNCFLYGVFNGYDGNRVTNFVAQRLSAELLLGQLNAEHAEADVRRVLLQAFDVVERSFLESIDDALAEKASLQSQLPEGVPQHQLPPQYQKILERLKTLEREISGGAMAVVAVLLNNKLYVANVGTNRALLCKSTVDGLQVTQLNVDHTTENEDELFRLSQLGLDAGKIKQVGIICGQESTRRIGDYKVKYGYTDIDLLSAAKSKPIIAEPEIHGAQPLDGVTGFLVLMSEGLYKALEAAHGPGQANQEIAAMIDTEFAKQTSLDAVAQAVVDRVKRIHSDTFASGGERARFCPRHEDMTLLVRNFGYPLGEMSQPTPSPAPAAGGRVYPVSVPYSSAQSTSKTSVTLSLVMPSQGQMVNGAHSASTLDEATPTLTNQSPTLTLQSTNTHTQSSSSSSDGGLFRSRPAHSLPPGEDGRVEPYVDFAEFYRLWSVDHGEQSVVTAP"}, "KDR (human)": {"target": "KDR (human) (UniProt P35968)"}, "PRKCB2 (human)": {"target": "PRKCB2 (human) (UniProt P05771)"}, "MAP3K10 (human)": {"target": "MAP3K10 (human) (UniProt Q02779)"}, "RET (human)": {"target": "RET (human) (UniProt P07949)", "sequence (P07949 whole entry, looked up)": "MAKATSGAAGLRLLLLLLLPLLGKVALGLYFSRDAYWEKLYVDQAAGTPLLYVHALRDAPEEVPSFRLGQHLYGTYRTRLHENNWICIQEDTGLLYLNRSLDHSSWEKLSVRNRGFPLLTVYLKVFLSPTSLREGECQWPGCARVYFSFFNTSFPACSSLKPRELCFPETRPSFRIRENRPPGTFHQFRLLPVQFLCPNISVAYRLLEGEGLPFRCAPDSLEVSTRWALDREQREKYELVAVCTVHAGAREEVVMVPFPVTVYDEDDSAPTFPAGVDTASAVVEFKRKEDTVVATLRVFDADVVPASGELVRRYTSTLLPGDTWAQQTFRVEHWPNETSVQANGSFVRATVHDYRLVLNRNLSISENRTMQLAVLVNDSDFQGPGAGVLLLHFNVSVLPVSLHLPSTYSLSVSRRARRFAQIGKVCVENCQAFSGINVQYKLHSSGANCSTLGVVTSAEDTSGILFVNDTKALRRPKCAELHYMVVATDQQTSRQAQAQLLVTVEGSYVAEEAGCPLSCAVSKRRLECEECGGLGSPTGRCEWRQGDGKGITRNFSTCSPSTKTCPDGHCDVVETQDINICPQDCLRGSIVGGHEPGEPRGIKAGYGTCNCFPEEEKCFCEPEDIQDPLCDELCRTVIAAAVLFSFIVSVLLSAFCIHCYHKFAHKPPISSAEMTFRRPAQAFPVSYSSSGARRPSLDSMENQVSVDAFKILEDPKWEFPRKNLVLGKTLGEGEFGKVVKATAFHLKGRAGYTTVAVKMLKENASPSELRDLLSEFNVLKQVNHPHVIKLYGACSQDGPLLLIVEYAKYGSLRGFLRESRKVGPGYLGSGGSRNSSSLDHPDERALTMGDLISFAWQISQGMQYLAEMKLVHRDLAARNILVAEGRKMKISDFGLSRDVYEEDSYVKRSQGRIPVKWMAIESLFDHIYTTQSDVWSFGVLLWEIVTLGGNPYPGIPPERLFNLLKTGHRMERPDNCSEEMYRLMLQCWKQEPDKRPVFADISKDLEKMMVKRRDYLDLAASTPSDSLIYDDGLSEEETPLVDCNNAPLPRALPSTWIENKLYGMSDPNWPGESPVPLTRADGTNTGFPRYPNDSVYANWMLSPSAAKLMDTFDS"}, "AURKB (human)": {"target": "AURKB (human) (UniProt Q96GD4)"}, "EPHA7 (human)": {"target": "EPHA7 (human) (UniProt Q15375)"}, "YES1 (human)": {"target": "YES1 (human) (UniProt P07947)"}, "SRPK1 (human)": {"target": "SRPK1 (human) (UniProt Q96SB4)"}, "MAPKAPK3 (human)": {"target": "MAPKAPK3 (human) (UniProt Q16644)"}, "CDK2 CCNE1 (human)": {"target": "CDK2 CCNE1 (human) (UniProt P24941+P24864)"}, "PTK6 (human)": {"target": "PTK6 (human) (UniProt Q13882)"}, "IGF1R (human)": {"target": "IGF1R (human) (UniProt P08069)"}, "MET (human)": {"target": "MET (human) (UniProt P08581)"}, "PTK2 (human)": {"target": "PTK2 (human) (UniProt Q05397)"}, "MAP3K8 (human)": {"target": "MAP3K8 (human) (UniProt P41279)"}, "ERBB2 (human)": {"target": "ERBB2 (human) (UniProt P04626)"}, "PASK (human)": {"target": "PASK (human) (UniProt Q96RG2)"}, "ULK1 (human)": {"target": "ULK1 (human) (UniProt O75385)"}, "PIM1 (human)": {"target": "PIM1 (human) (UniProt P11309)"}, "EPHB4 (human)": {"target": "EPHB4 (human) (UniProt P54760)"}, "STK25 (human)": {"target": "STK25 (human) (UniProt O00506)"}, "RPS6KA4 KD2 (human)": {"target": "RPS6KA4 KD2 (human) (UniProt O75676)"}, "RPS6KA5 KD2 (human)": {"target": "RPS6KA5 KD2 (human) (UniProt O75582)"}, "RPS6KA6 KD1 KD2 (human)": {"target": "RPS6KA6 KD1 KD2 (human) (UniProt Q9UK32)", "sequence (Q9UK32 whole entry, looked up)": "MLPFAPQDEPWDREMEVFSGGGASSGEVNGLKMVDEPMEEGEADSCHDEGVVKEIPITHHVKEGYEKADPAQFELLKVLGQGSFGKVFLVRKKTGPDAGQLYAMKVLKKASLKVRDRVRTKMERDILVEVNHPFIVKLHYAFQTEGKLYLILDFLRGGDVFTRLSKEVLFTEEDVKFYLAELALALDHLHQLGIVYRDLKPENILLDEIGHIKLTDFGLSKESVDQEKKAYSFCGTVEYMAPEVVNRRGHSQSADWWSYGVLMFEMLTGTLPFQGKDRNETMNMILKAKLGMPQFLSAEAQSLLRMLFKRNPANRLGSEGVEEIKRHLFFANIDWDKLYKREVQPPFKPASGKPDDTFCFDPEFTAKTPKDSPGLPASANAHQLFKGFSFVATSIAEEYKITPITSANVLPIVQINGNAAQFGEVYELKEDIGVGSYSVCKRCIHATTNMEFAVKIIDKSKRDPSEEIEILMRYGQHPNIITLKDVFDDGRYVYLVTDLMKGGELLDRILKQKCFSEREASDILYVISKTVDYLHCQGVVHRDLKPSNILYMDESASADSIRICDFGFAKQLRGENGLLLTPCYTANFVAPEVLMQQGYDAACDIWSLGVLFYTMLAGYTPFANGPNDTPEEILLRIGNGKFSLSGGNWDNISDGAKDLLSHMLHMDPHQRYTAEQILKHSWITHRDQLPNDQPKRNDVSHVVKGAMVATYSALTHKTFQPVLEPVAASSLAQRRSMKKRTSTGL"}}, "data": [{"smiles": "COc1cc2ncnc(Nc3ccc(OCc4ccccc4)cc3)c2cc1OC", "values": [{"measurement": "residual activity", "setting": "MAPK10 (human)", "result": 84.5, "unit": "%"}, {"measurement": "residual activity", "setting": "ADRBK1 (human)", "result": 101, "unit": "%"}, {"measurement": "residual activity", "setting": "EPHB3 (human)", "result": 90, "unit": "%"}, {"measurement": "residual activity", "setting": "CLK1 (human)", "result": 111, "unit": "%"}, {"measurement": "residual activity", "setting": "MAPKAPK2 (human)", "result": 106, "unit": "%"}, {"measurement": "residual activity", "setting": "RPS6KA1 KD1 KD2 (human)", "result": 90.2, "unit": "%"}, {"measurement": "residual activity", "setting": "PRKD3 (human)", "result": 95.3, "unit": "%"}, {"measurement": "residual activity", "setting": "CLK4 (human)", "result": 99.5, "unit": "%"}, {"measurement": "residual activity", "setting": "IRAK4 (human)", "result": 119, "unit": "%"}, {"measurement": "residual activity", "setting": "PRKCG (human)", "result": 98.5, "unit": "%"}, {"measurement": "residual activity", "setting": "PRKCE (human)", "result": 99.4, "unit": "%"}, {"measurement": "residual activity", "setting": "CHUK (human)", "result": 95.1, "unit": "%"}, {"measurement": "residual activity", "setting": "NTRK1 (human)", "result": 97.1, "unit": "%"}, {"measurement": "residual activity", "setting": "TAOK1 (human)", "result": 94.4, "unit": "%"}, {"measurement": "residual activity", "setting": "CAMK2A (human)", "result": 107, "unit": "%"}, {"measurement": "residual activity", "setting": "MAP4K5 (human)", "result": 65.4, "unit": "%"}, {"measurement": "residual activity", "setting": "[1]", "result": 102, "unit": "%"}, {"measurement": "residual activity", "setting": "MAP3K7 TAB1 (human)", "result": 101, "unit": "%"}, {"measurement": "residual activity", "setting": "KDR (human)", "result": 96.8, "unit": "%"}, {"measurement": "residual activity", "setting": "PRKCB2 (human)", "result": 106, "unit": "%"}, {"measurement": "residual activity", "setting": "MAP3K10 (human)", "result": 94.9, "unit": "%"}, {"measurement": "residual activity", "setting": "RET (human)", "result": 89.1, "unit": "%"}, {"measurement": "residual activity", "setting": "AURKB (human)", "result": 50.3, "unit": "%"}, {"measurement": "residual activity", "setting": "EPHA7 (human)", "result": 97, "unit": "%"}, {"measurement": "residual activity", "setting": "YES1 (human)", "result": 36, "unit": "%"}, {"measurement": "residual activity", "setting": "SRPK1 (human)", "result": 105, "unit": "%"}, {"measurement": "residual activity", "setting": "MAPKAPK3 (human)", "result": 102, "unit": "%"}, {"measurement": "residual activity", "setting": "CDK2 CCNE1 (human)", "result": 96.7, "unit": "%"}, {"measurement": "residual activity", "setting": "PTK6 (human)", "result": 37.9, "unit": "%"}, {"measurement": "residual activity", "setting": "IGF1R (human)", "result": 102, "unit": "%"}, {"measurement": "residual activity", "setting": "MET (human)", "result": 98.9, "unit": "%"}, {"measurement": "residual activity", "setting": "PTK2 (human)", "result": 105, "unit": "%"}, {"measurement": "residual activity", "setting": "MAP3K8 (human)", "result": 90.1, "unit": "%"}, {"measurement": "residual activity", "setting": "ERBB2 (human)", "result": 42.6, "unit": "%"}, {"measurement": "residual activity", "setting": "PASK (human)", "result": 98.6, "unit": "%"}, {"measurement": "residual activity", "setting": "ULK1 (human)", "result": 107, "unit": "%"}, {"measurement": "residual activity", "setting": "PIM1 (human)", "result": 102, "unit": "%"}, {"measurement": "residual activity", "setting": "EPHB4 (human)", "result": 94.6, "unit": "%"}, {"measurement": "residual activity", "setting": "STK25 (human)", "result": 93.4, "unit": "%"}, {"measurement": "residual activity", "setting": "RPS6KA4 KD2 (human)", "result": 105, "unit": "%"}, {"measurement": "residual activity", "setting": "RPS6KA5 KD2 (human)", "result": 103, "unit": "%"}, {"measurement": "residual activity", "setting": "RPS6KA6 KD1 KD2 (human)", "result": 95.9, "unit": "%"}]}, {"smiles": "Cn1c2ccccc2c2c3c(c4c5ccccc5n(CCC#N)c4c21)CNC3=O", "values": [{"measurement": "residual activity", "setting": "MAPK10 (human)", "result": 94.5, "unit": "%"}, {"measurement": "residual activity", "setting": "ADRBK1 (human)", "result": 103, "unit": "%"}, {"measurement": "residual activity", "setting": "EPHB3 (human)", "result": 87.2, "unit": "%"}, {"measurement": "residual activity", "setting": "CLK1 (human)", "result": 69.9, "unit": "%"}, {"measurement": "residual activity", "setting": "MAPKAPK2 (human)", "result": 109, "unit": "%"}, {"measurement": "residual activity", "setting": "RPS6KA1 KD1 KD2 (human)", "result": 9.7, "unit": "%"}, {"measurement": "residual activity", "setting": "PRKD3 (human)", "result": 7.3, "unit": "%"}, {"measurement": "residual activity", "setting": "CLK4 (human)", "result": 66.2, "unit": "%"}, {"measurement": "residual activity", "setting": "IRAK4 (human)", "result": 63.5, "unit": "%"}, {"measurement": "residual activity", "setting": "PRKCG (human)", "result": 72.1, "unit": "%"}, {"measurement": "residual activity", "setting": "PRKCE (human)", "result": 58.5, "unit": "%"}, {"measurement": "residual activity", "setting": "CHUK (human)", "result": 102, "unit": "%"}, {"measurement": "residual activity", "setting": "NTRK1 (human)", "result": 1.64, "unit": "%"}, {"measurement": "residual activity", "setting": "TAOK1 (human)", "result": 43.9, "unit": "%"}, {"measurement": "residual activity", "setting": "CAMK2A (human)", "result": 19.1, "unit": "%"}, {"measurement": "residual activity", "setting": "MAP4K5 (human)", "result": 4.18, "unit": "%"}, {"measurement": "residual activity", "setting": "[1]", "result": 76.3, "unit": "%"}, {"measurement": "residual activity", "setting": "MAP3K7 TAB1 (human)", "result": 25.4, "unit": "%"}, {"measurement": "residual activity", "setting": "KDR (human)", "result": 57, "unit": "%"}, {"measurement": "residual activity", "setting": "PRKCB2 (human)", "result": 9.73, "unit": "%"}, {"measurement": "residual activity", "setting": "MAP3K10 (human)", "result": 25.8, "unit": "%"}, {"measurement": "residual activity", "setting": "RET (human)", "result": 0.516, "unit": "%"}, {"measurement": "residual activity", "setting": "AURKB (human)", "result": 33.1, "unit": "%"}, {"measurement": "residual activity", "setting": "EPHA7 (human)", "result": 62.6, "unit": "%"}, {"measurement": "residual activity", "setting": "YES1 (human)", "result": 68.7, "unit": "%"}, {"measurement": "residual activity", "setting": "SRPK1 (human)", "result": 98.3, "unit": "%"}, {"measurement": "residual activity", "setting": "MAPKAPK3 (human)", "result": 83.7, "unit": "%"}, {"measurement": "residual activity", "setting": "CDK2 CCNE1 (human)", "result": 27.8, "unit": "%"}, {"measurement": "residual activity", "setting": "PTK6 (human)", "result": 38.7, "unit": "%"}, {"measurement": "residual activity", "setting": "IGF1R (human)", "result": 98.3, "unit": "%"}, {"measurement": "residual activity", "setting": "MET (human)", "result": 100, "unit": "%"}, {"measurement": "residual activity", "setting": "PTK2 (human)", "result": 77, "unit": "%"}, {"measurement": "residual activity", "setting": "MAP3K8 (human)", "result": 111, "unit": "%"}, {"measurement": "residual activity", "setting": "ERBB2 (human)", "result": 107, "unit": "%"}, {"measurement": "residual activity", "setting": "PASK (human)", "result": 84.3, "unit": "%"}, {"measurement": "residual activity", "setting": "ULK1 (human)", "result": 106, "unit": "%"}, {"measurement": "residual activity", "setting": "PIM1 (human)", "result": 36.1, "unit": "%"}, {"measurement": "residual activity", "setting": "EPHB4 (human)", "result": 96.3, "unit": "%"}, {"measurement": "residual activity", "setting": "STK25 (human)", "result": 83.9, "unit": "%"}, {"measurement": "residual activity", "setting": "RPS6KA4 KD2 (human)", "result": 29.9, "unit": "%"}, {"measurement": "residual activity", "setting": "RPS6KA5 KD2 (human)", "result": 23.7, "unit": "%"}, {"measurement": "residual activity", "setting": "RPS6KA6 KD1 KD2 (human)", "result": 4.2, "unit": "%"}]}]}
